Three compounds from patent US20250163016A1, “PYRIDINE DERIVATIVE, PREPARATION METHOD THEREFOR AND USE THEREOF” (CHENGDU EASTON BIOPHARMACEUTICALS CO., LTD., priority 2022, published 2025) can be followed below.

For data set [1], the target named is T1, LSD1 (Homo sapiens, UniProt O60341).
T1 construct: purchased Active Motif 31432
The data set can be described thus: LSD1 activity test (HTRF). It is filed as biochemical. The following applies: H3(1-21)K4 me1-biotin substrate, read-out: IC50, inhibitory activity on LSD1. As to the method:
In this test, a homogeneous time resolved fluorescence (HTRF) technology was utilized, and the inhibitory activity of compounds on LSD1 was detected by adopting a two-step method. The first step was to incubate LSD1, compounds of different concentrations, and a biotin-labeled methylated polypeptide substrate (H3(1-21)K4 me1-biotin) at the room temperature for fixed time.
A corresponding solution with a 1000-fold final concentration was formed by dilution in a 384-well Source plate, and then Echo550 was used for transferring 10 nL to a 384-well reaction plate for being tested.
An inhibition percentage was calculated using a maximum value, a minimum value, and a signal value (maximum value: fluorescence intensity of 5 μL of 2× enzyme solution+5 μL of 2× substrate mixed solution+10 nL of 100% DMSO+10 μL of detection solution; minimum value: fluorescence intensity of 5 μL of 1× reaction solution+5 μL of 2× substrate mixed solution+10 nL of 100% DMSO+10 μL of detection solution; and signal value: fluorescence intensity of 5 μL of 2× enzyme solution+5 μL of 2× substrate mixed solution+10 nL of diluted compound to be tested+10 μL of detection solution), and a calculation formula was as follows: […]
Using a logarithm of the concentration as an X axis and the percentage inhibition rate as a Y axis, a dose-response curve was fitted using a formula log(inhibitor) vs. response-Variable slope (Four parameters) of analysis software Graphpad Prism 5 to obtain the IC50 value of each compound on the enzyme activity.

The test system of data set [2] is Kasumi-1 cells. Description: Kasumi-1 cell proliferation inhibition test (Celltiter GLO). It is filed as cell-based. The following applies: Homo sapiens, 168 h, Kasumi-1, 7 days culture. On the procedure: (§1) Research had confirmed that LSD1 played a crucial role in the occurrence process of various types of cancers, including small cell lung cancer (SCLC) and acute myeloid leukemia (AML). Therefore, a human acute myeloid leukemia (Kasumi-1) cell line was used to determine the ATP content in cells at different drug concentrations using a Celltiter GLO assay kit, the cell activity was reflected by luminescence intensity, and IC50 values of different compounds on Kasumi-1 cells were calculated using inhibition rates. The inhibitory effects of the compounds in the present application on the proliferation of Kasumi-1 cells were studied to evaluate the anti-tumor efficacy of the tested compounds at the cellular level.
(§2) • Day 1 Cells were seeded into the 384-well cell culture plate and placed in a 37° C. 5% CO2 cell incubator to be cultured overnight. • Day 0 The compound to be tested was prepared into a 10 mM mother liquid using DMSO, starting from 1 M, diluted by 3 folds, with 10 concentration points and double duplicate wells. A diluted compound was added into the 384-well cell culture plate and placed in a 37° C. 5% CO2 cell incubator to be cultured for 7 days. The concentration of the DMSO in a cell culture system was 0.1 vol %. • Day 7 Celltiter GLO was added into the 384-well cell culture plate according to a volume ratio of culture system:Celltiter GLO=1:1, light-shielded oscillation was carried out on a plate oscillator for 3 min, then the cell culture plate was placed at the room temperature for 30 min with light shielded, and the plate was read using a multifunctional microplate reader chemical light emitting module.
An inhibition rate was calculated by utilizing luminescence intensity of the above DMSO group (with DMSO added), test group (with the tested compound or a positive control solution added) and blank group (not treating cells), and a calculation formula was as follows: […]
Using a logarithm of the concentration as an X axis and the percentage inhibition rate as a Y axis, a dose-response curve was fitted using a formula log(inhibitor) vs. response-Variable slope (Four parameters) of analysis software Graphpad Prism 8 to obtain the IC50 value of each compound on Kasumi-1 proliferation inhibition activity.
(In ATP-based viability assays light output follows the ATP content of the culture.)

A short description of data set [3]: Pharmacokinetics of oral administration of rats. To be noted: male, rat, SD rats, p.o. 5.0 mg/kg, plasma. The class given is in vivo. As to the method:
With SD rats as tested animals, blood drug concentrations in plasma at different moments after oral administration of the compounds of the present application by the rats in a clarification kit mode were determined using an LC-MS/MS method. Pharmacokinetic parameters of the compounds of the present application in the rats were obtained, and pharmacokinetic characteristics of the compounds were studied.
• SD rats, male, weight 180-220 g, 3 rats per group. The animals were fed in an animal house after being purchased, an adaptation period was at least 3 days, and they were used for tests after passing quarantine.
According to Table 4, each group of rats was given the corresponding tested drugs or positive drugs by gavage, before administration, and 15 min, 30 min, 1 h, 2 h, 4 h, 6 h, 8 h, and 24 h after administration, a fixed volume of blood was collected through eye sockets and placed in an EDTA-K2 anticoagulant tube, centrifuging was carried out at 8000 rpm for 1 min to separate plasma into a centrifuge tube, and the plasma was frozen in a −20° C. refrigerator.
The plasma at each time point stored at −20° C. was taken out, then acetonitrile was added, after whirling at 1500 revolutions for 2 min, centrifuging was carried out for 15 min (3500 r/min), and a fixed volume of solution supernatant was taken for LC-MS/MS analysis.
Non-compartment model fitting was carried out on pharmacokinetic behaviors of the tested compounds, and DAS3.31 software was adopted to calculate main pharmacokinetic parameters (T1/2, Tmax, Cmax, AUClast, etc.).

The subject of data set [4] is NCI-H1417 cells. Description: NCI-H1417 cell proliferation inhibition test (Celltiter GLO). To be noted: Homo sapiens, 168 h, NCI-H1417, 7 days culture. The class given is cell-based. On the procedure:
as §1, with “small cell lung cancer (NCI-H1417)” for “acute myeloid leukemia (Kasumi-1)”, “kit, and” for “kit,”, “intensity.” for “intensity, and”, “the NCI-H1417” for “Kasumi-1”
as §2, with “μM,” for “M,”, “0.1%.” for “0.1 vol %.”
An inhibition percentage was calculated by utilizing luminescence intensity of the above DMSO group (with DMSO added), test group (with the tested compound and a positive control solution added) and blank group (not treating cells), a calculation formula being
Using a logarithm of the concentration as an X axis and the percentage inhibition rate as a Y axis, a dose-response curve was fitted using a formula log(inhibitor) vs. response-Variable slope (Four parameters) of analysis software Graphpad Prism 8 to obtain the IC50 value of each compound on NCI-H1417 proliferation inhibition activity.

For the compound `Cn1ncc2cc(-c3c(C#N)cc(N4CCC(N)CC4)nc3-c3ccc(C#N)c(F)c3)ccc21` [Compound 4, 6-(4-aminopiperid-1-yl)-2-(4-cyano-3-fluorophenyl)-3-(1-methyl-1H-indazol-5-yl)isonicotinonitrile], the IC50 in data set [1] amounted to 0.47 nM. Also, in data set [2], inhibition was half-maximal at 3.07 nM (IC50). Also, in data set [3], the AUC(0-t) amounted to 712 ± 89.3 ng·h/mL, the concentration peaked (Cmax) at 55 ± 7.72 ng/mL, the Tmax turned out to be 6 h and the half-life is 5.31 ± 0.24 h. This compound also returned an IC50 in data set [4] of 16.7 nM.

As to `CC(C)(O)Cn1ncc2cc(-c3c(C#N)cc(N4CCCNCC4)nc3-c3ccc(C#N)c(F)c3)c(F)cc21` [Compound 21, 2-(4-cyano-3-fluorophenyl)-6-(1,4-diazaniline-1-yl)-3-(6-fluoro-1-(2-hydroxyl-2-methylpropyl)-1H-indazol-5-yl)isonicotinonitrile], in data set [1], the IC50 was 0.79 nM. Moreover, the midpoint of inhibition in data set [2], the IC50, lay at 1.03 nM. For the same compound, in data set [3], the AUC(0-t) turned out to be 721 ± 125 ng·h/mL, the Cmax turned out to be 81.4 ± 17 ng/mL, the Tmax was found to be 4.67 ± 1.15 h and the half-life was 2.84 ± 0.59 h. This compound yielded a 50% inhibitory concentration (IC50) in data set [4] of 6.51 nM.

As for `CN1C(=O)Cc2cc(-c3c(C#N)cc(N4CCC(N)CC4)nc3-c3ccc(C#N)c(F)c3)ccc21` [Compound 18, 6-(4-aminopiperid-1-yl)-2-(4-cyano-3-fluorophenyl)-3-(1-methyl-2-oxoindol-5-yl)isonicotinonitrile], the IC50 in data set [1] stood at 1.5 nM. In addition, in data set [2], half-maximal inhibition (IC50) was put at 8.79 nM. Moreover, in data set [3], the AUC(0-t) came to 591 ± 292 ng·h/mL, the peak level (Cmax) was 77.2 ± 32.1 ng/mL, the Tmax is 4 h and the half-life was 2.94 ± 0.11 h. Further, the IC50 in data set [4] was 33.3 nM.

One may read the IC50 as the midpoint of a concentration-inhibition curve. A word on the AUC(0-t): it is the area under the concentration-time curve up to a stated or last time point. A high value points to high exposure. As a reminder, the Cmax is the highest concentration seen after dosing. In general, Tmax refers to the time from dosing to the highest level. A word on the half-life: it is the time in which the quantity being followed falls by half. A higher half-life goes with slow decline.
